pIC50: −log10 of the molar value.
Legend:
[1] = target: HEK293 cells expressing NR1/NR2B (Homo sapiens (Human), UniProt Q13224); test: NR2B NAM Assay (FDSS Ca2+ influx cell assay); assay type: cell-based; conditions: Ca2+ influx inhibition relative to MK801; 3 μM glutamate, 3 μM glycine, 1 mM Ca2+; read-out: NR2B NAM IC50
Procedure: (§1) Cell Culture and plating: HEK293 cells expressing NR1/NR2B (Chantest, Cleveland, Ohio) were grown to 70-80% confluency as an adherent monolayer in standard tissue culture flasks at 37° C., 5% CO2 per supplier's instructions. NR2B expression was induced by incubation with 0.3-0.4 μg/ml tetracycline in the presence of 4 mM ARL-15896 for 18-24 hours under the same growth conditions, then transferred to 30° C. for another 3-5 hours.
(§2) After induction, cell culture medium was removed and cells were rinsed once with Ca^2+ and Mg^2+-free Dulbecco's phosphate buffered saline. Cells were then removed from the flask using TrypLE™ Express (Life Technologies) according to the manufacturer's instructions and collected to 50 ml centrifuge tubes. Following two washes in Ca^2+/Mg^2+-free HBSS with 20 mM HEPES (HHnoCa), cells were counted and viability assessed using trypan blue. To load cells with Ca^2+-sensitive dye, they were resuspended in fluo-8 plus Component B (AAT Bioquest Products) diluted in HHnoCa and incubated 15 minutes at 37° C., followed by 30 minutes at room temp (in dark). Cells were then washed and resuspended in HHnoCa to remove extracellular dye and plated in 384-well plates (Falcon, uncoated) at 20,000-30,000 cells/well in a final volume of 25 μl/well.
(§3) FDSS Assay: To each well of the plate, 10 μL test compound, control (MK801) or HHnoCa buffer was added at different concentrations to yield final concentrations of 0.001, 0.003, 0.010, 0.030, 0.100, 0.300, 1.000, 3.000, 10.000, or 30.000 uM final concentration of DMSO of 0.1%. Following 10 minutes pre-incubation in the dark, plates are loaded onto the Hamamatsu FDSS 6000. After collecting baseline fluorescence images, 3 μM glutamate, 3 μM glycine, and 1 mM Ca^2+ in HHnoCa buffer is added to each well, and Ca^2+ is recorded for 3 minutes. Data were processed by computing ratio of fluorescence at the end of data collection to baseline fluorescence to assess degree of Ca^2+ influx inhibition relative to that observed in MK801.
(§4) Table 8 below provides activity of each compound according to the legend that “++++” indicates inhibition at a concentration<100 nM; “+++” indicates inhibition at a concentration between 100 nM and 1 μM of the disclosed compound; “++” indicates inhibition at a concentration of from 1 μM to 10 μM; and “+” indicates inhibition at a concentration>10 μM.

[2] = target: HEK293 cells expressing NR1/NR2B (Homo sapiens (Human), UniProt Q05586+Q13224); test: NR2B NAM Assay (FDSS Ca2+ influx cell assay); assay type: cell-based; conditions: NR2B NAM assay, class of inhibitory concentration; read-out: Activity Category
Procedure: as §1, §2, §3, §4

Chain of HEK293 cells expressing NR1/NR2B (Homo sapiens (Human), UniProt Q13224) (Q13224 27-1484, other chains not shown): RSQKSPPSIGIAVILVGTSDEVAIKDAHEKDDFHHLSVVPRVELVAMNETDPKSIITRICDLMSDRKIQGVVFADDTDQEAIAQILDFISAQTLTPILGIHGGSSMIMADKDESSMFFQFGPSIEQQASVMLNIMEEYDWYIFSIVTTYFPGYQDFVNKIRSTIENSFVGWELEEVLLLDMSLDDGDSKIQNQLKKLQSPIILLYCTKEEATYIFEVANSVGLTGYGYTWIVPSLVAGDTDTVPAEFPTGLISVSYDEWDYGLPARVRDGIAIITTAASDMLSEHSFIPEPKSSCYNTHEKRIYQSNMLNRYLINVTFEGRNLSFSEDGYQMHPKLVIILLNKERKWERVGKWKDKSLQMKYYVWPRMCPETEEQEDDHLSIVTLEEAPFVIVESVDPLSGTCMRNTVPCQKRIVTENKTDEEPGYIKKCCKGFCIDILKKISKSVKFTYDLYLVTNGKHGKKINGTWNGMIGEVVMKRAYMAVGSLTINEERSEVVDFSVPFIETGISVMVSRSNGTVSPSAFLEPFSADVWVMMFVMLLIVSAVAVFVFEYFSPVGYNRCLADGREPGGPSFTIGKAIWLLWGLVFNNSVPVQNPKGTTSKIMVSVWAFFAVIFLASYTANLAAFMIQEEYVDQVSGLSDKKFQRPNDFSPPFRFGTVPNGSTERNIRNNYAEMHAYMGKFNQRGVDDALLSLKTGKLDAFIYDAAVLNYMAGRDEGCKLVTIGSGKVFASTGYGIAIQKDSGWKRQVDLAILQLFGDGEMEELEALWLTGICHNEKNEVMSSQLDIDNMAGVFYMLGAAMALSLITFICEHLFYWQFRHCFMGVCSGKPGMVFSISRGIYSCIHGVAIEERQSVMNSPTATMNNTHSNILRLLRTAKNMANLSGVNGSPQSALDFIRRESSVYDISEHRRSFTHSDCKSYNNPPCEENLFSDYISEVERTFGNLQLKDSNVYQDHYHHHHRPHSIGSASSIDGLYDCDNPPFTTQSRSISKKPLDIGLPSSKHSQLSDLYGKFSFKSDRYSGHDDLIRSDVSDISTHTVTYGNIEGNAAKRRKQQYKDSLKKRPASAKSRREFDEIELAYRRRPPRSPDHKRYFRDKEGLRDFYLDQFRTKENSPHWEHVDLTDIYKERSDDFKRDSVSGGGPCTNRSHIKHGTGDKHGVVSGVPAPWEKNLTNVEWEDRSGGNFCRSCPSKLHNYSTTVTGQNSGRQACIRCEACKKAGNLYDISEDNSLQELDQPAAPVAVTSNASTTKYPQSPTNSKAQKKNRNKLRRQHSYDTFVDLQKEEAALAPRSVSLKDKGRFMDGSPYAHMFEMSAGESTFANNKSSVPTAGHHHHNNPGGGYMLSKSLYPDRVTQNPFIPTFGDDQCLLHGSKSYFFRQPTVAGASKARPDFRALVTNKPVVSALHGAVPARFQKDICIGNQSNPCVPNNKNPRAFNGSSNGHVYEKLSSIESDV
Chain of HEK293 cells expressing NR1/NR2B (Homo sapiens (Human), UniProt Q05586+Q13224) (Q13224 27-1484, other chains not shown): as above

SMILES	pIC50 [1]	pIC50 [2]
Oc1ccc(C(O)CN2C[C@H]3C[C@H](Oc4cncc(F)c4)C[C@H]3C2)cc1 (stereo partly drawn)	6.57	6.00 to 7.00
COc1ccc(O[C@@H]2C[C@@H]3CN(CC(=O)c4ccc(O)cc4)C[C@@H]3C2)cc1	7.24	> 7.00
Cc1ncccc1O[C@H]1C[C@@H]2CN(CC(=O)c3ccc(O)cc3)C[C@@H]2C1	6.87	6.00 to 7.00
Cc1ncccc1O[C@H]1C[C@@H]2CN(CC(O)c3ccc(O)cc3)C[C@@H]2C1 (stereo partly drawn)	6.73	6.00 to 7.00
COc1ccc(O[C@H]2C[C@@H]3CN(CC(O)c4ccc(O)c(OC)n4)C[C@@H]3C2)cc1 (stereo partly drawn)	5.88	5.00 to 6.00
Cc1ccc(O[C@H]2C[C@@H]3CN(CC(=O)c4ccc(O)cn4)C[C@@H]3C2)c(F)n1	5.00	< 5.00
O=C(CN1C[C@H]2C[C@H](Oc3cccc(F)c3F)C[C@H]2C1)c1ccc(O)cn1	6.51	6.00 to 7.00
COc1ccc(O[C@H]2C[C@@H]3CN(CC(=O)c4ccc(O)c(OC)n4)C[C@@H]3C2)cc1	5.00	< 5.00
O=C(CN1C[C@H]2C[C@@H](Oc3ccc(F)cc3)C[C@H]2C1)c1ccc(O)c(F)c1	7.27	> 7.00
O=C(CN1C[C@H]2C[C@H](Oc3ccc(F)cc3)C[C@H]2C1)c1ccc(O)cn1	6.16	6.00 to 7.00
OC(CN1C[C@H]2C[C@H](Oc3ccc(F)cc3)C[C@H]2C1)c1cnn(Cc2ccccc2)c1 (stereo partly drawn)	5.00	< 5.00
COc1ccc(F)c(O[C@H]2C[C@@H]3CN(CC(O)c4ccc(O)cc4)C[C@@H]3C2)c1 (stereo partly drawn)	6.24	6.00 to 7.00

The remaining compounds from weak to strong by pIC50 [1], led by results:

pIC50 [1]	pIC50 [2]	SMILES
5.00	< 5.00	COc1ccc(O[C@H]2C[C@@H]3CN(CC(=O)c4ccc(O)c(F)n4)C[C@@H]3C2)cc1
5.90	5.00 to 6.00	O=C(CN1C[C@H]2C[C@H](Oc3ccc(F)c(F)c3)C[C@H]2C1)c1ccc(O)cn1
5.97	5.00 to 6.00	O=C(CN1C[C@H]2C[C@H](Oc3c(F)cccc3F)C[C@H]2C1)c1ccc(O)cn1
6.31	6.00 to 7.00	Oc1ccc(C(O)CN2C[C@H]3C[C@H](Oc4cncc(Cl)c4)C[C@H]3C2)cc1 (stereo partly drawn)
6.39	6.00 to 7.00	O=C(CN1C[C@H]2C[C@H](Oc3cccc4cnccc34)C[C@H]2C1)c1ccc(O)cc1
6.60	6.00 to 7.00	O=C(CN1C[C@H]2C[C@H](Oc3cncc(Cl)c3)C[C@H]2C1)c1ccc(O)cc1
6.65	6.00 to 7.00	Cc1ccc(O[C@H]2C[C@@H]3CN(CC(=O)c4ccc(O)cn4)C[C@@H]3C2)c(F)c1
6.75	6.00 to 7.00	Cc1cccc(O[C@H]2C[C@@H]3CN(CC(=O)c4ccc(O)cc4)C[C@@H]3C2)c1F
6.83	6.00 to 7.00	O=C(CN1C[C@H]2C[C@H](Oc3cnccn3)C[C@H]2C1)c1ccc(O)cc1
6.95	6.00 to 7.00	COc1ccc(S[C@H]2C[C@@H]3CN(CC(O)c4ccc(O)cc4)C[C@@H]3C2)cc1 (stereo partly drawn)
7.16	> 7.00	O=C(CN1C[C@H]2C[C@@H](Oc3ccc(F)c(F)c3)C[C@H]2C1)c1ccc(O)cc1
7.38	> 7.00	COc1ccc(O[C@H]2C[C@@H]3CN(CC(O)c4ccc(O)c(F)c4)C[C@@H]3C2)cc1 (stereo partly drawn)
7.74	> 7.00	N#Cc1ccc(O[C@H]2C[C@@H]3CN(CC(O)c4ccc(O)cn4)C[C@@H]3C2)cc1 (stereo partly drawn)
8.06	> 7.00	Oc1ccc(C(O)CN2C[C@H]3C[C@H](Oc4cccc(F)c4F)C[C@H]3C2)nc1 (stereo partly drawn)
8.06	> 7.00	Oc1ccc(C(O)CN2C[C@H]3C[C@H](Oc4ccc(F)cc4F)C[C@H]3C2)cc1 (stereo partly drawn)
